In US20170233409A1, “TYPE IV SECRETION SYSTEM INHIBITORS” (priority 2016, published 2017):

Tested on: type V secretion system-mediated release of the cytotoxin VacA
Type: cell-based, H. pylori

SMILES | type V secretion system-mediated release of VacA into cell culture supernatants
O=C(O)[C@@H]1CSc2c(C3CC3)c(Cc3cccc4ccccc34)cc(=O)n21 [Compound C10, (3R)-8-cyclopropyl-7-(naphthalen-1-ylmethyl)-5-oxo-3,5-dihydro-2H-thiazolo[3,2-a]pyridine-3-carboxylic acid] | did not impair
COc1ccc(Cc2cc(=O)n3c(c2C2CC2)SC[C@H]3C(=O)O)c2ccccc12 [KSK85, (3R)-7-[(4-methoxynaphthalen-1-yl)methyl]-8-cyclopropyl-5-oxo-2,3-dihydro-5H-[1,3]thiazolo[3,2-a]pyridine-3-carboxylic acid] | did not impair
